Measured values from ChEMBL document CHEMBL1208683, “Insights into binding modes of adenosine A(2B) antagonists with ligand-based and receptor-based methods” (Eur J Med Chem, 2010).

What was measured:
Adenosine receptor A2b = molecular target: T1, Adenosine receptor A2b (Homo sapiens, UniProt P29275)
T1 sequence (P29275 whole entry): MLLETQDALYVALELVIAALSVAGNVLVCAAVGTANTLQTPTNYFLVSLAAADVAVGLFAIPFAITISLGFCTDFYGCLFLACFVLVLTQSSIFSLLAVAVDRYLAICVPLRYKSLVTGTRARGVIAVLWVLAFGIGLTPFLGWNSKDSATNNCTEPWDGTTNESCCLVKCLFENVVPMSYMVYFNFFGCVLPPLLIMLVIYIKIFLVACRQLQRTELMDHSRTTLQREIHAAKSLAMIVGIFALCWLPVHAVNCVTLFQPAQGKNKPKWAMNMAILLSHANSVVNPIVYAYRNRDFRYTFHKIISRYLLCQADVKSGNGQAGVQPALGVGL
Description: Antagonist activity against human adenosine A2B receptor

Adenosine receptor A2a [1] = molecular target: Adenosine receptor A2a (Rattus norvegicus, UniProt P30543); test: Antagonist activity against rat adenosine A2A receptor; format: functional
Chain of Adenosine receptor A2a (Rattus norvegicus, UniProt P30543) (P30543 whole entry): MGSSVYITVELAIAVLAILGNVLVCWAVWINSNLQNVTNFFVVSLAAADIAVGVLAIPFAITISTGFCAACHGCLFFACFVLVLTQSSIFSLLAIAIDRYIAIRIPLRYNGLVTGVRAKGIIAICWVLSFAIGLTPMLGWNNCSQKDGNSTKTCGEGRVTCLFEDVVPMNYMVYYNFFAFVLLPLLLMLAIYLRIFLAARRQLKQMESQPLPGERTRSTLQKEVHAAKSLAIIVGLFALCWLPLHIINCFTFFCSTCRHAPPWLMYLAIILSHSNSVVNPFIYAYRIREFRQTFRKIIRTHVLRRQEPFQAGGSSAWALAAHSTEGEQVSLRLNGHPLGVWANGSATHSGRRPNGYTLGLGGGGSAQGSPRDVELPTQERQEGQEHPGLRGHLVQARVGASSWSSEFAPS

Adenosine receptor A1 [2] = molecular target: T2, Adenosine receptor A1 (Rattus norvegicus, UniProt P25099); test: Antagonist activity against rat adenosine A1 receptor; format: functional
T2 sequence (P25099 whole entry): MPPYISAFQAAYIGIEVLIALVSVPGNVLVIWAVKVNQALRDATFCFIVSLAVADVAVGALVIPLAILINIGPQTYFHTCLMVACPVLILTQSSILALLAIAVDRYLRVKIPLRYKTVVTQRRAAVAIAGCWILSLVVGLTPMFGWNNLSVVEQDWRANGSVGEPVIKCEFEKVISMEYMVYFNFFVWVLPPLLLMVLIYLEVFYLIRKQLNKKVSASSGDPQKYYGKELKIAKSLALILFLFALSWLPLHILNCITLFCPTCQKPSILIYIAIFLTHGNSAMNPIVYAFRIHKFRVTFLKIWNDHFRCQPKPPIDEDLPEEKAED

Adenosine receptor A3 = molecular target: T3, Adenosine receptor A3 (Homo sapiens, UniProt P0DMS8)
T3 sequence (P0DMS8 whole entry): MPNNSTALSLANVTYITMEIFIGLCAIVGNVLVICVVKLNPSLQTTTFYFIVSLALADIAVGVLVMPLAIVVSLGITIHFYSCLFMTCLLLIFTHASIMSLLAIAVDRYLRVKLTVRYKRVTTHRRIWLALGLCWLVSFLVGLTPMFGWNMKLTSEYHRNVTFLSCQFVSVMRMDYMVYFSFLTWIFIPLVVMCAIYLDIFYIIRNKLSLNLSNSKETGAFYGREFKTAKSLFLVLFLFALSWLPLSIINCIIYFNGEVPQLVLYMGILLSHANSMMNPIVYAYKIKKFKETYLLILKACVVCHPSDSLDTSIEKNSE
Description: Antagonist activity against human adenosine A3 receptor

Adenosine receptor A2a [3] = molecular target: T4, Adenosine receptor A2a (Homo sapiens, UniProt P29274)
T4 sequence (P29274 whole entry): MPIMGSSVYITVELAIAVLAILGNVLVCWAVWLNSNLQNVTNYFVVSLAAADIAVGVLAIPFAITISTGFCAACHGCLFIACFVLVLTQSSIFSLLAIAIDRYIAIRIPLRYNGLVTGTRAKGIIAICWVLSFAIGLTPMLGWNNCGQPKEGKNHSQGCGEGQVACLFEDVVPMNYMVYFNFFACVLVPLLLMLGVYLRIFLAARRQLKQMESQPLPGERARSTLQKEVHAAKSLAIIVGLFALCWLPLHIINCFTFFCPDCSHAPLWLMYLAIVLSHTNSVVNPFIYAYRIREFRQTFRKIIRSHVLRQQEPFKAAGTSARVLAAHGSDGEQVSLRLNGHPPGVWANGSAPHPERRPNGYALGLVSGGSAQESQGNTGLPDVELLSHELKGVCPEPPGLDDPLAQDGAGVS
Description: (§1) Antagonist activity against human adenosine A2A receptor

Adenosine receptor A1 [4] = molecular target: T5, Adenosine receptor A1 (Homo sapiens, UniProt P30542)
T5 sequence (P30542 whole entry): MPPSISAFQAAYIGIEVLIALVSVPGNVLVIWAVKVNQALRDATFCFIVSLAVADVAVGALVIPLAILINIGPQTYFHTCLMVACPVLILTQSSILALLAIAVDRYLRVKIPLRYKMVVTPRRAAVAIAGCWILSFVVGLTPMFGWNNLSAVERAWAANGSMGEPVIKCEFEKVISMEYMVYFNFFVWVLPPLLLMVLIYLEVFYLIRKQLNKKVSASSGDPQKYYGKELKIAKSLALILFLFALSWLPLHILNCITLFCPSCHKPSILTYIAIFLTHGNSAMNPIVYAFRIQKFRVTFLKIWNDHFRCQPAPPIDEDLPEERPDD
Description: Antagonist activity against human adenosine A1 receptor

Adenosine receptor A2a [5] = molecular target: T4, Adenosine receptor A2a; remark: listed apart in the source
Description: as §1

Ki (Adenosine receptor A2b) [µM] | Ki (Adenosine receptor A3) [µM] | SMILES | also measured
0.112 | – | COc1ccc2c(C)nc(NC3=NCC(=O)N3)nc2c1 | Ki (Adenosine receptor A2a [1]): 2.4 µM; Ki (Adenosine receptor A1 [2]): 1.29 µM
– | > 10 | Cn1c(=O)c2[nH]c(-c3ccc(S(=O)(=O)NCC(=O)O)cc3)nc2n(C)c1=O | –
– | > 1 | CCCn1c(=O)[nH]c2[nH]c(-c3ccc(S(=O)(=O)NCc4ccccc4)cc3)nc2c1=O | –
1.78 | – | CCOc1cccc2c(C)nc(N=C(N)N)nc12 | Ki (Adenosine receptor A2a [1]): 0.624 µM; Ki (Adenosine receptor A1 [2]): 1.33 µM
– | 0.054 | CCCn1c(=O)c2nc(-c3cnn(Cc4cc(C(F)(F)F)ccc4Cl)c3)[nH]c2n(CCC)c1=O | –
1.29 | 2.81 | Nc1nc(-n2cncn2)c2nnn(Cc3ccccc3F)c2n1 | Ki (Adenosine receptor A2a [3]): 0.4 µM; Ki (Adenosine receptor A1 [4]): 2.96 µM
1.66 | > 9 | Cn1c(=O)c2c(nc(-c3ccccc3)n2O)n(C)c1=O | Activity (Adenosine receptor A2a [5]): 12%
